Data from BindingDB's records for doi:10.1021/jm0490641 (Boehringer Ingelheim Pharma, 2005).

Molecular target: Calcitonin gene-related peptide receptor (Callithrix jacchus)
Assay: Affinity against calcitonin gene related peptide receptor (1 uM) in marmoset tissue homogenates using [125I]CGRP as radioligand after 180 minutes of incubation at pH 7.40
Details: pH 7.4

- IC50: 2.7 nM
SMILES: NCCCC[C@@H](NC(=O)[C@H](Cc1cc(Br)c(O)c(Br)c1)NC(=O)N1CCC(n2c(=O)[nH]c3ccccc32)CC1)C(=O)N1CCN(c2ccncc2)CC1 [4-(2-Oxo-2,3-dihydro-benzoimidazol-1-yl)-piperidine-1-carboxylic acid [(S)-1-[(R)-5-amino-1-(4-pyridin-4-yl-piperazine-1-carbonyl)-pentylcarbamoyl]-2-(3,5-dibromo-4-hydroxy-phenyl)-ethyl]-amide]
